Like-named read-outs stand apart in the source and are kept apart here.
Assays:
[1] = test system: Escherichia coli K-12 MG1655; experiment: Growth of K-12 MG1655 in varying concentrations of fumaric, itaconic, malic and succinic acid, Growth Profiler; assay type: cell-based
Procedure, shortened: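 Escherichia coli K-12 MG1655 cultures were grown in M9 medium with 1% glucose and challenged with the dicarboxylic acids, supplied as neutral sodium salts or as free acids neutralized to pH 7.0 with sodium hydroxide. Plates were shaken at 225 rpm and 37° C. in a Growth Profiler, scanned every 15 minutes, and green pixel values were converted to OD600 by calibration.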

[2] = test system: Escherichia coli K-12 MG1655 and evolved isolates; assay type: cell-based; details: 50 g/L succinic acid
Procedure, shortened: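 Wild-type MG1655 and evolved isolates, precultured overnight in M9 + 1% glucose at 37 °C, were diluted into M9 + 1% glucose. Growth at 37 °C, 225 rpm, scanned every 15 min; pixel values calibrated to OD600. Diacids tested as sodium salts or neutralized to pH 7.0.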

## O=C(O)CCC(=O)O [succinic acid]
[1]; growth rate of K-12 MG1655, 10 g/L diacid (sodium salt)
  μ (mean): 0.665 h^1
[1]; growth rate of K-12 MG1655, 20 g/L diacid (sodium salt)
  μ (mean): 0.610 h^1
[1]; growth rate of K-12 MG1655, 30 g/L diacid (sodium salt)
  μ (mean): 0.496 h^1
[1]; growth rate of K-12 MG1655, 40 g/L diacid (sodium salt)
  μ (mean): 0.345 h^1
[1]; growth rate of K-12 MG1655, 50 g/L diacid (sodium salt)
  μ (mean): 0.179 h^1
[1]; growth rate of K-12 MG1655, 60 g/L diacid (sodium salt)
  μ (mean): 0.127 h^1
[1]; lag time of K-12 MG1655, 10 g/L diacid (sodium salt)
  tlag (mean): 5.4 h
[1]; lag time of K-12 MG1655, 20 g/L diacid (sodium salt)
  tlag (mean): 6.7 h
[1]; lag time of K-12 MG1655, 30 g/L diacid (sodium salt)
  tlag (mean): 8.9 h
[1]; lag time of K-12 MG1655, 40 g/L diacid (sodium salt)
  tlag (mean): 13.4 h
[1]; lag time of K-12 MG1655, 50 g/L diacid (sodium salt)
  tlag (mean): 22.4 h
[1]; lag time of K-12 MG1655, 60 g/L diacid (sodium salt)
  tlag (mean): 42.5 h
[2]; strain ADIP1-1
  growth rate μ (mean): 0.299 h⁻¹
  lag time tlag (mean): 16.1 h
[2]; strain ADIP1-9
  growth rate μ (mean): 0.290 h⁻¹
  lag time tlag (mean): 14.5 h
[2]; strain ADIP2-5
  growth rate μ (mean): 0.260 h⁻¹
  lag time tlag (mean): 25.5 h
[2]; strain ADIP2-6
  growth rate μ (mean): 0.278 h⁻¹
  lag time tlag (mean): 21.7 h
[2]; strain ADIP2-10
  growth rate μ (mean): 0.262 h⁻¹
  lag time tlag (mean): 22.0 h
[2]; strain ADIP3-2
  growth rate μ (mean): 0.311 h⁻¹
  lag time tlag (mean): 13.2 h
[2]; strain ADIP3-4
  growth rate μ (mean): 0.308 h⁻¹
  lag time tlag (mean): 12.7 h
[2]; strain ADIP3-8
  growth rate μ (mean): 0.304 h⁻¹
  lag time tlag (mean): 13.8 h
[2]; strain ADIP4-1
  growth rate μ (mean): 0.206 h⁻¹
  lag time tlag (mean): 15.7 h
[2]; strain ADIP4-8
  growth rate μ (mean): 0.228 h⁻¹
  lag time tlag (mean): 15.8 h
[2]; strain ADIP5-2
  growth rate μ (mean): 0.192 h⁻¹
  lag time tlag (mean): 13.5 h
[2]; strain ADIP5-6
  growth rate μ (mean): 0.361 h⁻¹
  lag time tlag (mean): 12.1 h
[2]; strain ADIP6-3
  growth rate μ (mean): 0.246 h⁻¹
  lag time tlag (mean): 14.9 h
[2]; strain ADIP6-9
  growth rate μ (mean): 0.210 h⁻¹
  lag time tlag (mean): 18.4 h
[2]; strain ADIP6-10
  growth rate μ (mean): 0.285 h⁻¹
  lag time tlag (mean): 12.4 h
[2]; strain ADIP7-2
  growth rate μ (mean): 0.294 h⁻¹
  lag time tlag (mean): 12.5 h
[2]; strain ADIP7-5
  growth rate μ (mean): 0.274 h⁻¹
  lag time tlag (mean): 12.4 h
[2]; strain ADIP8-3
  growth rate μ (mean): 0.146 h⁻¹
  lag time tlag (mean): 22.1 h
[2]; strain ADIP8-7
  growth rate μ (mean): 0.163 h⁻¹
  lag time tlag (mean): 23.2 h
[2]; strain ADIP8-10
  growth rate μ (mean): 0.131 h⁻¹
  lag time tlag (mean): 20.0 h
[2]; strain GLUT1-3
  growth rate μ (mean): 0.231 h⁻¹
  lag time tlag (mean): 14.5 h
[2]; strain GLUT1-9
  growth rate μ (mean): 0.194 h⁻¹
  lag time tlag (mean): 20.8 h
[2]; strain GLUT1-10
  growth rate μ (mean): 0.246 h⁻¹
  lag time tlag (mean): 20.0 h
[2]; strain GLUT2-1
  growth rate μ (mean): 0.232 h⁻¹
  lag time tlag (mean): 14.7 h
[2]; strain GLUT2-9
  growth rate μ (mean): 0.213 h⁻¹
  lag time tlag (mean): 14.4 h
[2]; strain GLUT2-10
  growth rate μ (mean): 0.277 h⁻¹
  lag time tlag (mean): 13.4 h
[2]; strain GLUT3-5
  growth rate μ (mean): 0.242 h⁻¹
  lag time tlag (mean): 16.1 h
[2]; strain GLUT3-7
  growth rate μ (mean): 0.235 h⁻¹
  lag time tlag (mean): 15.3 h
[2]; strain GLUT3-9
  growth rate μ (mean): 0.221 h⁻¹
  lag time tlag (mean): 20.6 h
[2]; strain GLUT4-1
  growth rate μ (mean): 0.263 h⁻¹
  lag time tlag (mean): 16.3 h
[2]; strain GLUT4-4
  growth rate μ (mean): 0.242 h⁻¹
  lag time tlag (mean): 16.6 h
[2]; strain GLUT4-10
  growth rate μ (mean): 0.231 h⁻¹
  lag time tlag (mean): 15.7 h
[2]; strain GLUT5-4
  growth rate μ (mean): 0.281 h⁻¹
  lag time tlag (mean): 17.0 h
[2]; strain GLUT5-5
  growth rate μ (mean): 0.264 h⁻¹
  lag time tlag (mean): 18.4 h
[2]; strain GLUT5-9
  growth rate μ (mean): 0.244 h⁻¹
  lag time tlag (mean): 18.4 h
[2]; strain GLUT6-4
  growth rate μ (mean): 0.241 h⁻¹
  lag time tlag (mean): 14.2 h
[2]; strain GLUT6-5
  growth rate μ (mean): 0.243 h⁻¹
  lag time tlag (mean): 13.9 h
[2]; strain GLUT6-10
  growth rate μ (mean): 0.211 h⁻¹
  lag time tlag (mean): 14.4 h
[2]; strain GLUT7-2
  growth rate μ (mean): 0.223 h⁻¹
  lag time tlag (mean): 14.9 h
[2]; strain GLUT7-6
  growth rate μ (mean): 0.195 h⁻¹
  lag time tlag (mean): 17.8 h
[2]; strain GLUT7-7
  growth rate μ (mean): 0.156 h⁻¹
  lag time tlag (mean): 19.9 h
[2]; strain GLUT8-5
  growth rate μ (mean): 0.198 h⁻¹
  lag time tlag (mean): 16.4 h
[2]; strain GLUT8-6
  growth rate μ (mean): 0.236 h⁻¹
  lag time tlag (mean): 34.1 h
[2]; strain GLUT8-9
  growth rate μ (mean): 0.250 h⁻¹
  lag time tlag (mean): 38.0 h
[2]; strain MG1655 (Table 28)
  growth rate μ (mean): 0.169 h⁻¹
  lag time tlag (mean): 20.2 h
[2]; strain MG1655 (Table 29)
  growth rate μ (mean): 0.143 h⁻¹
  lag time tlag (mean): 23.8 h
